The nature of data set [1]: Whole body autoradiography and excretion after intravenous injection. It counts as in vivo. Conditions: in 24 hours, 14C-labeled.
Data set [2] deals with a variety of tumor cell lines. Kind of data set: Direct inhibitory effect on tumor cell lines in vitro. It counts as cell-based. The conditions noted are these: concentrations up to 50 μM.
Data set [3] deals with a variety of tumor cell lines subcutaneously implanted. Kind of data set: Subcutaneous tumor implants in immunocompromised mice. It counts as in vivo. The source says: (§1) The ability of human tumors to grow as xenografts in athymic mice (e.g., Balb/c, nu/nu) provides a useful in vivo model for studying the biological response to therapies for human tumors. Since the first successful xenotransplantation of human tumors into athymic mice, (Rygaard and Povlsen, 1969, Acta Pathol. Microbial. Scand. 77:758-760), many different human tumor cell lines (e.g., mammary, lung, genitourinary, gastrointestinal, head and neck, glioblastoma, bone, and malignant melanomas) have been transplanted and successfully grown in nude mice. The following assays may be used to determine the level of activity, specificity and effect of the different compounds of the present invention. […]
(§2) Cell lines are grown in appropriate medium (for example, MEM, DMEM, Ham's F10, or Ham's F12 plus 5%-10% fetal bovine serum (FBS) and 2 mM glutamine (GLN)). […] All cell lines are routinely subcultured twice a week and are negative for mycoplasma as determined by the Mycotect method (Gibco).
(§3) Cells are harvested at or near confluency with 0.05% Trypsin-EDTA and pelleted at 450×g for 10 min. […] Tumor growth is measured over 3 to 6 weeks using venier calipers. Tumor volumes are calculated as a product of length×width×height unless otherwise indicated. P values are calculated using the Students t-test. […]

Another data set relates to tumor growth. Kind of data set: Less frequent intraperitoneal dosing studies in athymic mice. Conditions: for tumor growth inhibition: intraperitoneal. It counts as in vivo.
From the text: as §1, with “invention. Three general types of assays are useful for evaluating compounds: cellular/catalytic, cellular/biological and in vivo. The object of the cellular/catalytic assays is to determine the effect of a compound on the ability of a TK to phosphorylate tyrosines on a known substrate in a cell. The object of the cellular/biological assays is to determine the effect of a compound on the biological response stimulated by a TK in a cell. The object of the in vivo assays is to determine the effect of a compound in an animal model of a particular disorder such as cancer.” for “invention.”
as §2, §3

A short description of data set [4]: In vivo intravenous pharmacokinetics, dogs.
Data set [5] relates to ATP binding site of the receptor tyrosine kinase. The experiment in a line: Washout experiments in vitro.
The test system of data set [6] is tumor cells implanted under the serosa of the colon. Kind of data set: Tumor cells surgically implanted under the serosa of the colon. It counts as in vivo, mice. The method, then:
8 week old nude mice (female) (Simonsen Inc.) are used as experimental animals. Implantation of tumor cells can be performed in a laminar flow hood. For anesthesia, Xylazine/Ketamine Cocktail (100 mg/kg ketamine and 5 mg/kg Xylazine) are administered intraperitoneally. A midline incision is done to expose the abdominal cavity (approximately 1.5 cm in length) to inject 10^7 tumor cells in a volume of 100 μl medium. The cells are injected either into the duodenal lobe of the pancreas or under the serosa of the colon. The peritoneum and muscles are closed with a 6-0 silk continuous suture and the skin is closed by using wound clips. Animals are observed daily.
After 2-6 weeks, depending on gross observations of the animals, the mice are sacrificed, and the local tumor metastases to various organs (lung, liver, brain, stomach, spleen, heart, muscle) are excised and analyzed (measurement of tumor size, grade of invasion, immunochemistry, in situ hybridization determination, etc.).

For data set [7], the system named is β-450 liver enzymes (CYP1A2 and CYP3A4). The experiment in a line: In vitro metabolism studies. It counts as in vitro ADME.
The nature of data set [8]: Phase I dose escalation studies, toxicity. It counts as in vivo. The conditions noted are these: patients treated with up to 52 weeks of treatment.
The next data set relates to human melanoma cells. Kind of data set: Dose response study, human melanoma cells subcutaneous in athymic mice. It counts as in vivo. Conditions: daily administration, doses as low as 1 mg/kg/day.
From the text: as §1, §2, §3

The structures appear in SMILES notation.

For the compound `Cc1cc(C)c(/C=C2\C(=O)Nc3ccccc32)[nH]1` [3-[(2,4-dimethylpyrrol-5-yl)methylidenyl]-2-indolinone], in [1], the excreted in feces was found to be 72%, the excreted in urine is 16% and the total dose recovered is 92 % of the total administered dose. Also, the “direct inhibitory effects on tumor cell lines” value in [2] is on record as “no direct inhibitory effects”. The “suppression of tumor growth with delayed administration” value in data set [3] (administration delayed until tumors approximately 50 mm^3, versus start on Day 1) was “equivalent efficacy”. Further, the “inhibition of tumor growth” value in data set [3] (daily intraperitoneal dosing 12.5-25 mg/kg/day for 28 days) is given as 30-80%. Further, in the data set with tumor growth (dosing at 3 to 4 day intervals), the “tumor growth inhibition and toxicity with interval dosing” value is “sufficient to inhibit tumor growth without toxicity”. This compound also registered a tumor growth inhibition in the data set on tumor growth (daily dosing) of 68%. In the data set on tumor growth (twice weekly dosing for four weeks), this compound registered a tumor growth inhibition of 77%. In addition, the “elimination of the parent compound from the circulation” value in data set [4] is “rapid elimination”. Also, the target half-life in [5] amounted to 96 h. Besides, the “growth of tumor cells implanted under the serosa of the colon” value in data set [6] (daily administration 25 mg/kg/day) is “significantly inhibit the growth”. Moreover, the tumor vascularization entry in [6] (pale appearance of tumors in treated animals) is recorded as “decreased vascularization”. In addition, the metabolizing enzymes entry in [7] is “metabolized via β-450 liver enzymes, most probably via CYP1A2 and CYP3A4”. The cumulative toxicity entry in [8] is listed as “no cumulative toxicity was observed”. In addition, the “inhibition of human melanoma cells” value with human melanoma cells was “dose-dependent inhibition”.

The values are drawn from patent publication US20030073837A1, “3-HETEROARYLIDENYL-2-INDOLINONE COMPOUNDS FOR MODULATING PROTEIN KINASE ACTIVITY AND FOR USE IN CANCER CHEMOTHERAPY” (priority 1998, published 2003).
